Experimental data published in patent publication EP0213526A1, “Spergualin-related compounds, a process for their preparation and their use as medicaments” (MICROBIAL CHEMISTRY RESEARCH FOUNDATION, priority 1985, dated 1987).

How the values were obtained:
mouse leukemia L-1210 [1] = assay: Therapeutic effects on cancer in mice (life prolongation, mouse leukemia L-1210); format: in vivo; details: 6 consecutive days, male BDF1 mice; for Percent life pro-longation: 10^5 L-1210 cells i.p., T/C x 100; for Percent survival for 30 days: groups of four, L-1210
Protocol: Male BDF1 mice (5-wk old) in groups comprising four heads were inoculated intraperitoneally with 10^5 cells of mouse leukemia L-1210. Starting on the day of inoculation, a selected sample dissolved in a physiological saline solution was administered intraperitoneally to each animal for 6 consecutive days on a one-dose-per-day basis. After keeping the animals for 30 days, the life-prolongation effect of sample was determined form the following formula:
Life-prolongation effect = T/C x 100 = (Average number of days of survival of the treated group / Average number of days of survival of the control group) x 100.

mouse leukemia FL-4 = details: healing experiments, from Japanese Patent Public Disclosure No. 48975/1982; cited from earlier work
mouse leukemia L-1210 [2] = details: healing experiments, from Japanese Patent Public Disclosure No. 48975/1982; cited from earlier work
sarcoma 180 (S-180) = details: healing experiments, from Japanese Patent Public Disclosure No. 48975/1982; cited from earlier work
[3] = system: Gram-negative microorganisms; details: background statement; cited from earlier work
[4] = system: Gram-positive microorganisms; details: background statement; cited from earlier work
Ehrlich cancer = details: healing experiments, from Japanese Patent Public Disclosure No. 48975/1982; cited from earlier work
[5] = Dose 0.20 mg/kg/day intraperitoneally
[6] = Dose 0.39 mg/kg/day intraperitoneally
[7] = Dose 0.78 mg/kg/day intraperitoneally
[8] = Dose 1.56 mg/kg/day intraperitoneally
[9] = Dose 3.13 mg/kg/day intraperitoneally
[10] = Dose 6.25 mg/kg/day intraperitoneally
[11] = Dose 12.5 mg/kg/day intraperitoneally
[12] = Dose 25 mg/kg/day intraperitoneally
[13] = Dose 50 mg/kg/day intraperitoneally

N=C(N)Nc1ccc(CCCC(=O)NC(O)C(=O)NCCCCNCCCN)cc1 (racemic) [Compound 1, 10-{N-[4-(4-guanidinophenyl)butanoyl]-α-hydroxyglycyl}-1,5,10-triazadecane]
Percent life pro-longation (mouse leukemia L-1210 [1]; [5]): 110% | Percent survival for 30 days (mouse leukemia L-1210 [1]; [5]): 0/4 | Percent life pro-longation (mouse leukemia L-1210 [1]; [6]): 120% | Percent survival for 30 days (mouse leukemia L-1210 [1]; [6]): 0/4 | Percent life pro-longation (mouse leukemia L-1210 [1]; [7]): 155% | Percent survival for 30 days (mouse leukemia L-1210 [1]; [7]): 0/4 | Percent life pro-longation (mouse leukemia L-1210 [1]; [8]): 197% | Percent survival for 30 days (mouse leukemia L-1210 [1]; [8]): 0/4 | Percent life pro-longation (mouse leukemia L-1210 [1]; [9]): > 335% | Percent survival for 30 days (mouse leukemia L-1210 [1]; [9]): 2/4 | Percent life pro-longation (mouse leukemia L-1210 [1]; [10]): > 363% | Percent survival for 30 days (mouse leukemia L-1210 [1]; [10]): 2/4 | Percent life pro-longation (mouse leukemia L-1210 [1]; [11]): > 401% | Percent survival for 30 days (mouse leukemia L-1210 [1]; [11]): 3/4 | Percent life pro-longation (mouse leukemia L-1210 [1]; [12]): > 356% | Percent survival for 30 days (mouse leukemia L-1210 [1]; [12]): 2/4 | Percent life pro-longation (mouse leukemia L-1210 [1]; [13]): 0% | Percent survival for 30 days (mouse leukemia L-1210 [1]; [13]): 0/4

COC(NC(=O)CCCc1ccc(NC(=N)N)cc1)C(=O)NCCCCNCCCN (racemic) [Compound 2, 10-{N-[4-(4-guanidinophenyl)butanoyl]-α-methoxyglycyl}-1,5,10-triazadecane]
Percent life pro-longation (mouse leukemia L-1210 [1]; [5]): 104% | Percent survival for 30 days (mouse leukemia L-1210 [1]; [5]): 0/4 | Percent life pro-longation (mouse leukemia L-1210 [1]; [6]): 111% | Percent survival for 30 days (mouse leukemia L-1210 [1]; [6]): 0/4 | Percent life pro-longation (mouse leukemia L-1210 [1]; [7]): 118% | Percent survival for 30 days (mouse leukemia L-1210 [1]; [7]): 0/4 | Percent life pro-longation (mouse leukemia L-1210 [1]; [8]): 171% | Percent survival for 30 days (mouse leukemia L-1210 [1]; [8]): 0/4 | Percent life pro-longation (mouse leukemia L-1210 [1]; [9]): > 368% | Percent survival for 30 days (mouse leukemia L-1210 [1]; [9]): 3/4 | Percent life pro-longation (mouse leukemia L-1210 [1]; [10]): > 403% | Percent survival for 30 days (mouse leukemia L-1210 [1]; [10]): 3/4 | Percent life pro-longation (mouse leukemia L-1210 [1]; [11]): > 417% | Percent survival for 30 days (mouse leukemia L-1210 [1]; [11]): 4/4 | Percent life pro-longation (mouse leukemia L-1210 [1]; [12]): > 417% | Percent survival for 30 days (mouse leukemia L-1210 [1]; [12]): 4/4 | Percent life pro-longation (mouse leukemia L-1210 [1]; [13]): 0% | Percent survival for 30 days (mouse leukemia L-1210 [1]; [13]): 0/4

N=C(N)NCCCC[C@H](O)CC(=O)NC(O)C(=O)NCCCCNCCCN (stereo partly drawn) [Spergualin]
therapeutic and life-prolonging effects (mouse leukemia FL-4): appreciable therapeutic and life-prolonging effects | therapeutic and life-prolonging effects (mouse leukemia L-1210 [2]): appreciable therapeutic and life-prolonging effects | therapeutic and life-prolonging effects (sarcoma 180 (S-180)): appreciable therapeutic and life-prolonging effects | effect of inhibiting the growth [3]: inhibiting the growth | effect of inhibiting the growth [4]: inhibiting the growth | therapeutic and life-prolonging effects (Ehrlich cancer): appreciable therapeutic and life-prolonging effects
